{
  "source": "patent US11344499B2",
  "about": "“Nanoparticles as delivery vehicles of active ingredients and methods for the production thereof” (CONSIGLIO NAZIONALE DELLE RICERCHE, priority 2017, dated 2022)",
  "key": {"HT29 cells [1]": {"system": "HT29 cells", "test": "Cell cycle analysis by flow cytometry (PI)", "assay_type": "cell-based, human", "settings": "HT29, 50 μM of 9-HSA, 24 h", "method": "Cell cycle analysis was performed as follows: 5.0×10^3 HT29 cells were seeded in 200 μl of growth medium in a 48-well culture plate. After 24 h of cell growth, the medium was removed and the cells were incubated with the experimental medium containing KER-NPs-9HSA (50 μM of 9-HSA) and free 9-HSA. Twenty-four hours after treatment, cells were trypsinized, washed twice with PBS and then centrifuged. Cells pellet was re-suspended in 0.01% Nonidet-P40 (Sigma-Aldrich), 10 μg/mL of RNasi (Sigma-Aldrich), 0.1% of sodium citrate (Sigma-Aldrich), 50 μg/mL di propidium iodide (PI) (Sigma-Aldrich), and kept in the dark for 30 min at room temperature. Florescence was detected by a flow cytometry (Beckman Coulter Epics XL-MCL), while cell cycle analysis was performed with Cell Cycle program (MODEFIT 5.0)."}, "HT29 cells [2]": {"system": "HT29 cells", "test": "Count of alive cells after treatment", "assay_type": "cell-based, human", "settings": "HT29, 50 μM of 9-HSA, 24 h", "method": "Briefly 5.0×10^3 human colon adenocarcinoma cell line HT29 cells were seeded in 200 μl of growth medium in replicate (n=4) in a 48-well culture plate. After 24 h of cell growth, the medium was removed and the cells were incubated with the experimental medium containing KNPs-9HSA (50 μM of 9-HSA) and free 9-HSA. Twenty-four hours after treatment, cells were detached and counted."}},
  "data": [
    {"compound": "CCCCCCCCCC(O)CCCCCCCC(=O)O", "note": "(centres unmarked) [Entry 9-HSA, 9-hydroxystearic acid]", "values": [
      {"measurement": "cell cycle effect", "setting": "HT29 cells [1]", "result": "blocks the cell cycle in the G0/G1 phase"},
      {"measurement": "tumor cell proliferation (number of alive cells)", "setting": "HT29 cells [2]", "result": "inhibit tumor cell proliferation"}
    ]}
  ]
}
